Assay results published in patent publication US5441941A, “1,2-dihydroellipticines with activity against CNS specific cancer” (The United States of America as represented by the …, priority 1993, dated 1995).

Columns and labels:
[1] = test system: SK-MEL-28; assay: NCI in vitro screen, SRB percent growth, Melanoma
[2] = test system: HL-60 (TB); assay: NCI in vitro screen, SRB percent growth, Leukemia
[3] = test system: UO-31; assay: NCI in vitro screen, SRB percent growth, Renal Cancer
[4] = test system: A549/ATCC; assay: NCI in vitro screen, SRB percent growth, Non-Small Cell Lung Cancer
[5] = test system: LOX IMVI; assay: NCI in vitro screen, SRB percent growth, Melanoma
[6] = test system: NCI-H23; assay: NCI in vitro screen, SRB percent growth, Non-Small Cell Lung Cancer
[7] = test system: TK-10; assay: NCI in vitro screen, SRB percent growth, Renal Cancer
[8] = test system: SW-620; assay: cells; conditions: Homo sapiens
[9] = test system: RPMI-8226; assay: cells; conditions: Homo sapiens
[10] = test system: OVCAR-5; assay: NCI in vitro screen, SRB percent growth, Ovarian Cancer
[11] = test system: SNB-19; assay: NCI in vitro screen, SRB percent growth, CNS Cancer
[12] = test system: DLD-1; assay: cells; conditions: Homo sapiens
[13] = test system: EKVX; assay: cells; conditions: Homo sapiens
[14] = test system: SNB-78; assay: NCI in vitro screen, SRB percent growth, CNS Cancer
[15] = test system: DMS 114; assay: cells; conditions: Homo sapiens
[16] = test system: MOLT-4; assay: cells; conditions: Homo sapiens
[17] = test system: OVCAR-3; assay: NCI in vitro screen, SRB percent growth, Ovarian Cancer
[18] = Log10 Concentration -4.0, 100 µM
[19] = Log10 Concentration -7.0, 0.1 µM
[20] = SW-620, read-out: Percent Growth
[21] = RPMI-8226, read-out: Percent Growth
[22] = DLD-1, read-out: Percent Growth
[23] = MOLT-4, read-out: Percent Growth

SMILES: Cc1ccc2[nH]c3c(C)c4c(c(C)c3c2c1)CN(C)C=C4 [Formula XI]
- Percent Growth [1, 18]: -95%
- Percent Growth ([1]; Log10 Concentration -5.0): -61%
- Percent Growth ([1]; Log10 Concentration -6.0, 1 µM): 108%
- Percent Growth [1, 19]: 115%
- Percent Growth ([1]; Log10 Concentration -8.0): 114%
- TGI ([1]; PG=0): 4.37 µM
- GI50 ([1]; PG=+50): 2.21 µM
- CC50 ([1]; read-out: LC-50, PG=-50): 8.62 µM
- Percent Growth [2, 18]: -30%
- Percent Growth ([2]; Log10 Concentration -5.0): 25%
- Percent Growth ([2]; Log10 Concentration -6.0, 1 µM): 102%
- Percent Growth ([2]; Log10 Concentration -8.0): 111%
- TGI ([2]; PG=0): 28.7 µM
- GI50 ([2]; PG=+50): 4.8 µM
- CC50 ([2]; read-out: LC-50, PG=-50): > 100 µM
- Percent Growth [3, 18]: -94%
- Percent Growth ([3]; Log10 Concentration -5.0): 36%
- Percent Growth ([3]; Log10 Concentration -6.0, 1 µM): 72%
- Percent Growth [3, 19]: 76%
- Percent Growth ([3]; Log10 Concentration -8.0): 103%
- TGI ([3]; PG=0): 18.8 µM
- GI50 ([3]; PG=+50): 3.99 µM
- CC50 ([3]; read-out: LC-50, PG=-50): 45.7 µM
- Percent Growth [4, 18]: -66%
- Percent Growth ([4]; Log10 Concentration -5.0): -15%
- Percent Growth ([4]; Log10 Concentration -6.0, 1 µM): 33%
- Percent Growth [4, 19]: 86%
- Percent Growth ([4]; Log10 Concentration -8.0): 96%
- TGI ([4]; PG=0): 4.9 µM
- GI50 ([4]; PG=+50): 0.469 µM
- CC50 ([4]; read-out: LC-50, PG=-50): 48.5 µM
- Percent Growth [5, 18]: -81%
- Percent Growth ([5]; Log10 Concentration -5.0): 26%
- Percent Growth ([5]; Log10 Concentration -6.0, 1 µM): 82%
- Percent Growth [5, 19]: 94%
- Percent Growth ([5]; Log10 Concentration -8.0): 98%
- TGI ([5]; PG=0): 17.4 µM
- GI50 ([5]; PG=+50): 3.67 µM
- CC50 ([5]; read-out: LC-50, PG=-50): 51.4 µM
- Percent Growth [6, 18]: -85%
- Percent Growth ([6]; Log10 Concentration -5.0): -75%
- Percent Growth ([6]; Log10 Concentration -6.0, 1 µM): 42%
- Percent Growth [6, 19]: 97%
- Percent Growth ([6]; Log10 Concentration -8.0): 95%
- TGI ([6]; PG=0): 2.29 µM
- GI50 ([6]; PG=+50): 0.668 µM
- CC50 ([6]; read-out: LC-50, PG=-50): 6.15 µM
- Percent Growth [7, 18]: -93%
- Percent Growth ([7]; Log10 Concentration -5.0): 49%
- Percent Growth ([7]; Log10 Concentration -6.0, 1 µM): 90%
- Percent Growth [7, 19]: 101%
- Percent Growth ([7]; Log10 Concentration -8.0): 103%
- TGI ([7]; PG=0): 22.1 µM
- GI50 ([7]; PG=+50): 9.46 µM
- CC50 ([7]; read-out: LC-50, PG=-50): 49.6 µM
- GI50 ([8]; SW-620): 0.279 µM
- CC50 ([8]; SW-620, read-out: LC-50): 28.6 µM
- activity at 0.01 µM [8, 20]: 89%
- activity at 0.1 µM [8, 20]: 76%
- activity at 1 µM [8, 20]: 18%
- activity at 10 µM [8, 20]: -21%
- activity at 100 µM [8, 20]: -85%
- IC (TGI) ([8]; SW-620, read-out: TGI): 2.87 µM
- GI50 ([9]; RPMI-8226): 6.81 µM
- CC50 ([9]; RPMI-8226, read-out: LC-50): > 100 µM
- activity at 0.01 µM [9, 21]: 109%
- activity at 0.1 µM [9, 21]: 106%
- activity at 1 µM [9, 21]: 103%
- activity at 10 µM [9, 21]: 39%
- activity at 100 µM [9, 21]: -27%
- IC (TGI) ([9]; RPMI-8226, read-out: TGI): 39.3 µM
- Percent Growth [10, 18]: -83%
- Percent Growth ([10]; Log10 Concentration -5.0): 19%
- Percent Growth ([10]; Log10 Concentration -6.0, 1 µM): 97%
- Percent Growth [10, 19]: 113%
- Percent Growth ([10]; Log10 Concentration -8.0): 108%
- TGI ([10]; PG=0): 15.2 µM
- GI50 ([10]; PG=+50): 3.99 µM
- CC50 ([10]; read-out: LC-50, PG=-50): 47.4 µM
- Percent Growth [11, 18]: -57%
- Percent Growth ([11]; Log10 Concentration -5.0): -51%
- Percent Growth ([11]; Log10 Concentration -6.0, 1 µM): 48%
- Percent Growth [11, 19]: 97%
- Percent Growth ([11]; Log10 Concentration -8.0): 104%
- TGI ([11]; PG=0): 3.04 µM
- GI50 ([11]; PG=+50): 0.897 µM
- CC50 ([11]; read-out: LC-50, PG=-50): 9.78 µM
- GI50 ([12]; DLD-1): 1.48 µM
- CC50 ([12]; DLD-1, read-out: LC-50): 59 µM
- activity at 0.01 µM [12, 22]: 102%
- activity at 0.1 µM [12, 22]: 93%
- activity at 1 µM [12, 22]: 58%
- activity at 10 µM [12, 22]: 13%
- activity at 100 µM [12, 22]: -69%
- IC (TGI) ([12]; DLD-1, read-out: TGI): 14.5 µM
- GI50 [13]: 3.6 µM
- activity at 0.01 µM ([13]; read-out: Percent Growth): 109%
- activity at 0.1 µM ([13]; read-out: Percent Growth): 114%
- activity at 1 µM ([13]; read-out: Percent Growth): 86%
- activity at 10 µM ([13]; read-out: Percent Growth): 22%
- activity at 100 µM ([13]; read-out: Percent Growth): -22%
- IC (TGI) ([13]; read-out: TGI): 31.2 µM
- Percent Growth [14, 18]: -75%
- Percent Growth ([14]; Log10 Concentration -5.0): -33%
- Percent Growth ([14]; Log10 Concentration -6.0, 1 µM): 38%
- Percent Growth [14, 19]: 128%
- Percent Growth ([14]; Log10 Concentration -8.0): 131%
- TGI ([14]; PG=0): 3.41 µM
- GI50 ([14]; PG=+50): 0.738 µM
- CC50 ([14]; read-out: LC-50, PG=-50): 25.2 µM
- GI50 ([15]; DMS-114): 0.414 µM
- IC (TGI) ([15]; DMS-114, read-out: TGI): 2.12 µM
- GI50 ([16]; MOLT-4): 2.14 µM
- CC50 ([16]; MOLT-4, read-out: LC-50): > 100 µM
- activity at 0.01 µM [16, 23]: 104%
- activity at 0.1 µM [16, 23]: 101%
- activity at 1 µM [16, 23]: 68%
- activity at 10 µM [16, 23]: 14%
- activity at 100 µM [16, 23]: -50%
- IC (TGI) ([16]; MOLT-4, read-out: TGI): 16.5 µM
- Percent Growth [17, 18]: -91%
- Percent Growth ([17]; Log10 Concentration -5.0): 5%
- Percent Growth ([17]; Log10 Concentration -6.0, 1 µM): 76%
- Percent Growth [17, 19]: 94%
- Percent Growth ([17]; Log10 Concentration -8.0): 98%
- TGI ([17]; PG=0): 11.3 µM
- GI50 ([17]; PG=+50): 2.34 µM
- CC50 ([17]; read-out: LC-50, PG=-50): 37.6 µM
